Active and inactive are the calls of the source. The rule behind the calls is not given here.
System: Respiratory syncytial virus
Assay: Antiviral activity against RSV A2 strain infected in vervet monkey MA-104 cells assessed as reduction in virus induced cytopathic effect incubated for 6 days by neutral red dye based spectrophotometric analysis
Format: functional, organism-based
Details: time 6.0 day

Compound | Activity
O=c1[nH]cnc2c1ncn2[C@@H]1O[C@H](CO)[C@H](OCP(=O)(O)O)[C@H]1O | inactive
Nc1ccn([C@@H]2O[C@H](CO)[C@H](OCP(=O)(O)O)[C@H]2O)c(=O)n1 | inactive

System: not listed separately
Assay: Cytotoxicity against African green monkey Vero 76 cells assessed as reduction in cell viability by neutral red dye based spectrophotometric analysis
Format: toxicity
Details: chlorocebus sabaeus

Compound | CC50 [µM]
O=c1[nH]cnc2c1ncn2[C@@H]1O[C@H](CO)[C@H](OCP(=O)(O)O)[C@H]1O | > 100
Nc1ccn([C@@H]2O[C@H](CO)[C@H](OCP(=O)(O)O)[C@H]2O)c(=O)n1 | > 100

System: not listed separately
Assay: Cytotoxicity against African green monkey Vero 76 cells assessed as reduction in cell viability by visual analysis
Format: toxicity, cell-based
Details: chlorocebus sabaeus

Compound | CC50 [µM]
O=c1[nH]cnc2c1ncn2[C@@H]1O[C@H](CO)[C@H](OCP(=O)(O)O)[C@H]1O | > 100
Nc1ccn([C@@H]2O[C@H](CO)[C@H](OCP(=O)(O)O)[C@H]2O)c(=O)n1 | > 100

System: not listed separately
Assay: Selectivity index, ratio of CC50 for cytotoxicity against African green monkey Vero 76 cells to EC50 for antiviral activity against MeV CC strain infected in African green monkey Vero 76 cells by visual analysis
Format: toxicity, cell-based
Details: read-out: Ratio CC50/EC50

Compound | selectivity ratio
Nc1ccn([C@@H]2O[C@H](CO)[C@H](OCP(=O)(O)O)[C@H]2O)c(=O)n1 | > 1.4

System: Influenza A virus
Assay: Antiviral activity against influenza A virus H1N1 California/07/2009 infected in dog MDCK cells assessed as reduction in virus induced cytopathic effect incubated for 6 days by neutral red dye based spectrophotometric analysis
Format: functional, organism-based
Details: time 6.0 day

Compound | Activity
O=c1[nH]cnc2c1ncn2[C@@H]1O[C@H](CO)[C@H](OCP(=O)(O)O)[C@H]1O | inactive
Nc1ccn([C@@H]2O[C@H](CO)[C@H](OCP(=O)(O)O)[C@H]2O)c(=O)n1 | inactive

System: not listed separately
Assay: Selectivity index, ratio of CC50 for cytotoxicity against African green monkey Vero 76 cells to EC50 for antiviral activity against MeV CC strain infected in African green monkey Vero 76 cells by neutral red dye based spectrophotometric analysis
Format: toxicity, cell-based
Details: read-out: Ratio CC50/EC50

Compound | selectivity ratio
Nc1ccn([C@@H]2O[C@H](CO)[C@H](OCP(=O)(O)O)[C@H]2O)c(=O)n1 | > 2

System: Hepatitis B virus
Assay: Antiviral activity against Hepatitis B virus
Format: functional, organism-based
Details: not given

Compound | Activity
O=c1[nH]cnc2c1ncn2[C@@H]1O[C@H](CO)[C@H](OCP(=O)(O)O)[C@H]1O | inactive
Nc1ccn([C@@H]2O[C@H](CO)[C@H](OCP(=O)(O)O)[C@H]2O)c(=O)n1 | inactive

System: not listed separately
Assay: Cytotoxicity against human Huh-7 cells assessed as reduction in cell viability by visual analysis
Format: toxicity, cell-based
Details: not given

Compound | CC50 [µM]
O=c1[nH]cnc2c1ncn2[C@@H]1O[C@H](CO)[C@H](OCP(=O)(O)O)[C@H]1O | > 100
Nc1ccn([C@@H]2O[C@H](CO)[C@H](OCP(=O)(O)O)[C@H]2O)c(=O)n1 | > 100

System: Herpesviridae sp.
Assay: Antiviral activity against HSV
Format: functional, organism-based
Details: not given

Compound | Activity
O=c1[nH]cnc2c1ncn2[C@@H]1O[C@H](CO)[C@H](OCP(=O)(O)O)[C@H]1O | inactive
Nc1ccn([C@@H]2O[C@H](CO)[C@H](OCP(=O)(O)O)[C@H]2O)c(=O)n1 | inactive

System: dengue virus type 2
Assay: Antiviral activity against DENV-2 New Guinea C infected in human Huh-7 cells assessed as reduction in virus induced cytopathic effect incubated for 6 days by neutral red dye based spectrophotometric analysis
Format: functional, organism-based
Details: Huh-7, 144 h

Compound | EC50 [µM]
O=c1[nH]cnc2c1ncn2[C@@H]1O[C@H](CO)[C@H](OCP(=O)(O)O)[C@H]1O | > 100
Nc1ccn([C@@H]2O[C@H](CO)[C@H](OCP(=O)(O)O)[C@H]2O)c(=O)n1 | > 100

System: enterovirus D68
Assay: Antiviral activity against EV-68 US/KY/14-18953 infected in human RD cells assessed as reduction in virus induced cytopathic effect incubated for 3 days by visual analysis
Format: functional, organism-based
Details: Enterovirus D, US/KY/14-18953, RD, 72 h

Compound | EC50 [µM]
O=c1[nH]cnc2c1ncn2[C@@H]1O[C@H](CO)[C@H](OCP(=O)(O)O)[C@H]1O | 46
Nc1ccn([C@@H]2O[C@H](CO)[C@H](OCP(=O)(O)O)[C@H]2O)c(=O)n1 | > 100

System: enterovirus D68
Assay: Antiviral activity against EV-68 US/KY/14-18953 infected in human RD cells assessed as reduction in virus induced cytopathic effect incubated for 3 days by neutral red dye based spectrophotometric analysis
Format: functional, organism-based
Details: Enterovirus D, US/KY/14-18953, RD, 72 h

Compound | EC50 [µM]
O=c1[nH]cnc2c1ncn2[C@@H]1O[C@H](CO)[C@H](OCP(=O)(O)O)[C@H]1O | 89
Nc1ccn([C@@H]2O[C@H](CO)[C@H](OCP(=O)(O)O)[C@H]2O)c(=O)n1 | > 100

System: dengue virus type 2
Assay: Antiviral activity against DENV-2 New Guinea C infected in human Huh-7 cells assessed as reduction in virus induced cytopathic effect incubated for 6 days by visual analysis
Format: functional, organism-based
Details: Huh-7, 144 h

Compound | EC50 [µM]
O=c1[nH]cnc2c1ncn2[C@@H]1O[C@H](CO)[C@H](OCP(=O)(O)O)[C@H]1O | > 100
Nc1ccn([C@@H]2O[C@H](CO)[C@H](OCP(=O)(O)O)[C@H]2O)c(=O)n1 | > 100

System: not listed separately
Assay: Cytotoxicity against human Huh-7 cells assessed as reduction in cell viability by neutral red dye based spectrophotometric analysis
Format: toxicity
Details: not given

Compound | CC50 [µM]
O=c1[nH]cnc2c1ncn2[C@@H]1O[C@H](CO)[C@H](OCP(=O)(O)O)[C@H]1O | > 100
Nc1ccn([C@@H]2O[C@H](CO)[C@H](OCP(=O)(O)O)[C@H]2O)c(=O)n1 | > 100

System: Measles morbillivirus
Assay: Antiviral activity against MeV CC strain infected in African green monkey Vero 76 cells assessed as reduction in virus induced cytopathic effect incubated for 6 days by visual analysis
Format: functional, organism-based
Details: Vero 76, 144 h

Compound | EC50 [µM]
O=c1[nH]cnc2c1ncn2[C@@H]1O[C@H](CO)[C@H](OCP(=O)(O)O)[C@H]1O | > 100
Nc1ccn([C@@H]2O[C@H](CO)[C@H](OCP(=O)(O)O)[C@H]2O)c(=O)n1 | 72

System: Middle East respiratory syndrome-related coronavirus
Assay: Antiviral activity against MERS-CoV EMC strain infected in […] cells assessed as reduction in virus induced cytopathic effect incubated for 5 days by neutral red dye based spectrophotometric analysis
Format: functional, organism-based
Details: time 5.0 day

Compound | Activity
O=c1[nH]cnc2c1ncn2[C@@H]1O[C@H](CO)[C@H](OCP(=O)(O)O)[C@H]1O | inactive
Nc1ccn([C@@H]2O[C@H](CO)[C@H](OCP(=O)(O)O)[C@H]2O)c(=O)n1 | inactive

System: not listed separately
Assay: Cytotoxicity against human RD cells assessed as reduction in cell viability by neutral red dye based spectrophotometric analysis
Format: toxicity
Details: not given

Compound | CC50 [µM]
O=c1[nH]cnc2c1ncn2[C@@H]1O[C@H](CO)[C@H](OCP(=O)(O)O)[C@H]1O | > 100
Nc1ccn([C@@H]2O[C@H](CO)[C@H](OCP(=O)(O)O)[C@H]2O)c(=O)n1 | > 100

System: not listed separately
Assay: Selectivity index, ratio of CC50 for cytotoxicity against human RD cells to EC50 for antiviral activity against EV-68 US/KY/14-18953 infected in human RD cells by visual analysis
Format: toxicity, cell-based
Details: read-out: Ratio CC50/EC50

Compound | selectivity ratio
O=c1[nH]cnc2c1ncn2[C@@H]1O[C@H](CO)[C@H](OCP(=O)(O)O)[C@H]1O | > 2.2

System: Measles morbillivirus
Assay: Antiviral activity against MeV CC strain infected in African green monkey Vero 76 cells assessed as reduction in virus induced cytopathic effect incubated for 6 days by neutral red dye based spectrophotometric analysis
Format: functional, organism-based
Details: Vero 76, 144 h

Compound | EC50 [µM]
O=c1[nH]cnc2c1ncn2[C@@H]1O[C@H](CO)[C@H](OCP(=O)(O)O)[C@H]1O | > 100
Nc1ccn([C@@H]2O[C@H](CO)[C@H](OCP(=O)(O)O)[C@H]2O)c(=O)n1 | 49

System: not listed separately
Assay: Selectivity index, ratio of CC50 for cytotoxicity against human RD cells to EC50 for antiviral activity against EV-68 US/KY/14-18953 infected in human RD cells by neutral red dye based spectrophotometric analysis
Format: toxicity, cell-based
Details: read-out: Ratio CC50/EC50

Compound | selectivity ratio
O=c1[nH]cnc2c1ncn2[C@@H]1O[C@H](CO)[C@H](OCP(=O)(O)O)[C@H]1O | > 1.1

System: Tacaribe virus
Assay: Antiviral activity against TCRV TRVL 11573 strain infected in African green monkey Vero 76 cells assessed as reduction in virus induced cytopathic effect incubated for 7 days by neutral red dye based spectrophotometric analysis
Format: functional, organism-based
Details: Mammarenavirus tacaribeense, time 7.0 day

Compound | Activity
O=c1[nH]cnc2c1ncn2[C@@H]1O[C@H](CO)[C@H](OCP(=O)(O)O)[C@H]1O | inactive
Nc1ccn([C@@H]2O[C@H](CO)[C@H](OCP(=O)(O)O)[C@H]2O)c(=O)n1 | inactive

System: not listed separately
Assay: Cytotoxicity against human RD cells assessed as reduction in cell viability by visual analysis
Format: toxicity, cell-based
Details: not given

Compound | CC50 [µM]
O=c1[nH]cnc2c1ncn2[C@@H]1O[C@H](CO)[C@H](OCP(=O)(O)O)[C@H]1O | > 100
Nc1ccn([C@@H]2O[C@H](CO)[C@H](OCP(=O)(O)O)[C@H]2O)c(=O)n1 | > 100
